Measurements as given in PMC11475408, “All‐Inorganic Polyoxometalates Act as Superchaotropic Membrane Carriers” (Advanced Materials (Deerfield Beach, Fla.), 2023).
Read-outs that look alike come from different tables or passages of the source.

Experiments:
[1] = CF transport assay in EYPC⊃CF vesicles (carrier activity); format: biochemical; parameters: key to Carrier activity: ‐ – ‐: No detectable activity at pH 5.5 and 7.4; settings: for heptaLys Ymax / EC50 / HeptaArg Y max / PolyArg Y max / Protamine Y max / HeptaArg Ymax, pH 5.5 / PolyArg Ymax, pH 5.5 / Protamine Ymax, pH 5.5: CF assay; for heptaLys Ymax: 13 µM phospholipids; for heptaLys Ymax / HeptaArg Y max / PolyArg Y max / Protamine Y max / HeptaArg Ymax, pH 5.5: ±2% error (SD); for HeptaArg Y max: 13 µM lipid, 10 mM Hepes or Tris, 10 min, Hill fit, triplicates; for heptaLys E / PolyArg E (activation efficiency) / Protamine E (activation efficiency) / HeptaArg E (activation efficiency) / HeptaArg E, pH 5.5 / PolyArg E, pH 5.5 / Protamine E, pH 5.5: f = 20.6; for heptaLys E / PolyArg E (activation efficiency) / Protamine E (activation efficiency) / HeptaArg E (activation efficiency) / HeptaArg E, pH 5.5: 10% error; for HeptaArg E (activation efficiency): E = Ymax(pEC50/f); for Transport activity (in words): EYPC⊃CF vesicles, neutral pH, carrier then cargo; for Onset for transport activity (carrier concentration): vesicles, heptaArg dose-response curves (Figure 2b)
Excerpt: The capability of POMs to act as membrane carriers was explored first in large unilamellar vesicles (LUVs) loaded with carboxyfluorescein (CF).^[ [54], [55] ^] We selected […] representative cationic peptides, heptaarginine (heptaArg), heptalysine (heptaLys), protamine, and polyarginine (polyArg), as test cargos. Inside the LUVs, the CF dye was encapsulated at self‐quenching concentrations. With a suitable carrier, heptaArg can be taken up into the vesicles, bind with entrapped CF, and shuttle back to the exterior, diluting the previously quenched CF, and thereby restoring its fluorescence (Figure 1c). In the time‐resolved fluorescence experiments (Figure 2a), to test whether a particular POM acts as molecular carrier, the CF emission was continuously monitored during the addition of the inorganic carrier (t = 60 s) and after injection of the impermeable selected cargo (t = 120 s). Toward the end of the experiment (t = 600 s), the surfactant Triton X‐100 was added to release all the entrapped CF and allow normalization of the intensity data.
A thin lipid film was prepared by evaporating a lipid solution of EYPC (egg yolk phosphatidylcholine, 25 mg) in CHCl3 (1 mL) with a stream of nitrogen and then dried in vacuo overnight. The dry film was rehydrated with 1 mL buffer (50 mM CF, 10 mM Hepes, pH 7.4 or 50 mM CF, 10 mM Tris, pH 7.4) for 30 min at room temperature, subjected to freeze–thaw cycles (7 times) and extrusions (15 times) through a polycarbonate membrane (pore size 100 nm). Extravesicular components were removed by size exclusion chromatography (NAP‐25 column Sephadex G‐25 DNA grade) with 10 mM Hepes, 107 mM NaCl, pH 7.4, or 10 mM Hepes, 107 mM NaCl, pH 7.4. Phospholipid concentration was calculated by the Stewart assay.^[ [81] ^]
Acidic vesicles were prepared analogously but the rehydration and elution buffer were 50 mM CF, 10 mM Mes, pH 5.5 and 10 mM Mes, 107 mM NaCl, pH 5.5. respectively.
Vesicles stock solutions (5–10 µL) were diluted with the corresponding buffer in a disposable plastic cuvette and gently stirred (total volume 2000 µL, final lipid concentration 13 µM). Carboxyfluorescein fluorescence was monitored at λ em = 517 nm (λ ex = 492 nm) as a function of time after addition of POMs at 60 s, analyte at 120 s and Triton X‐100 (24 µL 1.2% wt/vol) at 600 s to lyse the vesicles, for calibration. Fluorescence intensities were normalized to fractional emission as (1) It=It−I0/I∞−I0 where I 0 = I t before POM addition and […] after lysis. For Hill analysis, I t before lysis was defined as transport activity, Y, and plotted against POM concentration, c, and fitted to the Hill Equation (2), to afford the activity in absence of POM, Y 0, the maximal activity, Y max, the concentration needed to achieve 50% of maximal activity, EC 50, and the Hill coefficient, n (2) Y=Y0+Ymax−Y0/1+EC50/c^n
In the transport measurements, where different carriers (POMs) are tested with the same cargo, the activator efficiency (E) is determined by their capacity to transport the impermeable cargo to the intravesicular region and is characterized by Y max, its maximal activity, and EC 50, the effective activator concentration. An ideal carrier reaches high Y max at low EC 50. To count both factors, the activator efficiency is defined as (3) E=YmaxpEC50/f were pEC 50 is the negative logarithm of the EC 50, and f a scaling factor, which was set to 20.6 to calibrate the highest (previously known) activation efficiency, E, as 10.^[ [55] ^]

CHO‐K1 cells = assay: Cellular viability, resazurin assay; format: cell-based, Chinese hamster; settings: CHO-K1, up to 10 µM carrier, 24 h, n = 3
Protocol: For cell viability assay in thepresence of activators, CHO‐K1 cells were incubated in Ham's F‐12 medium containing 10% fetal bovine serum and 1.0% penicillin streptomycin at 37 °C in a 5% CO2 for 24 h. CHO‐K1 cells were dispersed in a 96‐well flat bottom tissue culture treated plates (Eppendorf) at density of 5 × 10^3 cells per well (per 100 µL) and incubated in Ham's F‐12 containing 10% v/v fetal bovine serum at 37 °C in a 5% CO2 incubator for 12 h to allow cell adhesion. Then, cells were incubated with POM, B12Br12 ^2−, or PyBu (10, 50, and 100 µM) for another 24 h. After this incubation time, 20 µL resazurin solution (0.15 mg mL^−1) was added to cells and incubated for another 3 h. Finally, the plates were read at λ em = 590 nm (λ ex = 560 nm) using a JASCO fluorometer FP‐8500. The cell viability was evaluated by the following equation (4) Cellviability=FIsample−FIblank/FIcontrol−FIblank×100% where, FI sample is the fluorescence intensity of cells incubated with different compounds, FI blank is the fluorescence intensity of medium, and FI control is the fluorescence intensity of cells in absence of any compound.
6. Transport in cellular membranes
Figure S13. Viability of CHO-K1cells (resazurin assay) incubated with different carrier concentrations (0, 10, 50, and 100 µM) for 24 hours. Error bars refer to standard deviation (n = 3).
Figure S14. […]

[2] = Hydrolysis/stability of POMs in buffer by NMR; settings: for Hydrolysis/stability pH 5.5: 10 mM Mes, 107 mM NaCl, long-term (24 h and longer)
Protocol: First, their long‐term (24 h and longer) fate in aqueous solution (slightly acidic and neutral) was investigated by applying the active NMR nuclei in their composition (Table S9 and Figures S24–S37, see the Supporting Information for details).
NMR-spectroscopic characterization of identity and stability
NMR spectroscopy for all POMs tested was performed under experimental conditions.

[3] = EYPC (zwitterionic), heptaLys cargo
[4] = EYPC (zwitterionic), heptaLys cargo, 5% error (SD), read-out: heptaLys EC50
[5] = EYPC LUVs, 10 µM heptaArg, 107 mM NaCl, pH 7.4
[6] = EYPC LUVs, 0.1 µM polyArg, pH 7.4, 5% error (SD), read-out: PolyArg EC 50
[7] = EYPC LUVs, 0.1 µM polyArg, pH 7.4
[8] = EYPC LUVs, 1 µM protamine, pH 7.4, 5% error (SD), read-out: Protamine EC 50
[9] = EYPC LUVs, 1 µM protamine, pH 7.4
[10] = EYPC LUVs, 10 µM heptaArg, pH 7.4, carrier concentration for 50% of Ymax, 5% error (SD), read-out: HeptaArg EC 50
[11] = EYPC vesicles, 10 µM heptaArg, 10 mM Mes, 107 mM NaCl, pH 5.5
[12] = EYPC vesicles, heptaArg cargo, 10 mM Mes, 107 mM NaCl, pH 5.5, 5% error (SD), read-out: HeptaArg EC50, pH 5.5
[13] = EYPC vesicles, polyArg cargo, 10 mM Mes, 107 mM NaCl, pH 5.5
[14] = EYPC vesicles, polyArg cargo, pH 5.5, read-out: PolyArg EC50, pH 5.5
[15] = EYPC vesicles, protamine cargo, 10 mM Mes, 107 mM NaCl, pH 5.5
[16] = EYPC vesicles, protamine cargo, pH 5.5, read-out: Protamine EC50, pH 5.5
[17] = EYPC LUVs, 10 µM heptaArg, pH 7.4
[18] = EYPC vesicles, protamine, pH 5.5
[19] = 3 mM POM, 10 mM Mes pH 5.5, 31P NMR integration
[20] = 3 mM POM, 10 mM Tris-HCl pH 7.5, 31P NMR integration

Row | Substance | heptaLys Ymax [1, 3] [%] | EC50 [1, 4] [µM] | HeptaArg Y max [1, 5] [%] | EC50 [1, 6] [µM] | PolyArg Y max [1, 7] [%] | EC50 [1, 8] [µM] | Protamine Y max [1, 9] [%] | EC50 [1, 10] [µM] | HeptaArg Ymax, pH 5.5 [1, 11] [%] | EC50 [1, 12] [µM] | PolyArg Ymax, pH 5.5 [1, 13] [%] | EC50 [1, 14] [µM] | Protamine Ymax, pH 5.5 [1, 15] [%] | EC50 [1, 16] [µM] | heptaLys E [1, 3] | PolyArg E (activation efficiency) [1, 7] | Protamine E (activation efficiency) [1, 9] | HeptaArg E (activation efficiency) [1, 17] | Transport activity (in words) [1] | Hydrolysis/stability pH 5.5 ([2]; NMR) | further results
1 | K4[α‐Si^IVMo^VIW^VI 11O40]·24H2O [[SiMoW11]^4‒] | 54 | 22 | 66 | 13 | 94 | 19 | 72 | 17 | 66 | 9 | 86 | 5 | 80 | 14 | 4.4 | 8.6 | 6.0 | 5.7 | triggered the desired increase in fluorescence characteristic for cargo transport | Stable | HeptaArg E, pH 5.5 ([1]; EYPC vesicles, pH 5.5): 6.6; PolyArg E, pH 5.5 ([1]; EYPC vesicles, pH 5.5): 9.7; Protamine E, pH 5.5 [1, 18]: 7.3; Onset for transport activity (carrier concentration) [1]: around 1 µM; Cell viability (CHO‐K1 cells): about 80%; Solution stability in Mes pH 5.5 (183W NMR) ([2]; 10 mM POM, 33 mM Mes pH 5.5 (final pH 5), only signals of intact anion, acquisition 60 h): solution stability for up to 60 h; % parent anion, Tris-HCl pH 7.5 (183W NMR) ([2]; 10 mM POM, 33 mM Tris pH 7.5 (final pH 6.9), 183W NMR signal intensities, acquisition 60 h): 45%; Hydrolysis at pH 7.5 (fraction hydrolysed) ([2]; neutral buffer pH 7.5, high concentration, NMR, after 24 h): 45%
2 | K4[α‐P^VV^VW^VI 11O40]·4H2O [[PVW11]^4‒] | 62 | 38 | 84 | 12 | 88 | 41 | 88 | 49 | 79 | 28 | 91 | 5 | 79 | 19 | 4.3 | 8.2 | 5.9 | 5.3 | triggered the desired increase in fluorescence characteristic for cargo transport | Stable | HeptaArg E, pH 5.5 ([1]; EYPC vesicles, pH 5.5): 5.9; PolyArg E, pH 5.5 ([1]; EYPC vesicles, pH 5.5): 10.1; Protamine E, pH 5.5 [1, 18]: 6.6; Onset for transport activity (carrier concentration) [1]: around 1 µM; Cell viability (CHO‐K1 cells): about 80%; % monolacunary [PVWVI11O39]7‒ formed, Mes pH 5.5 after 1 day [2, 19]: 1%; % monolacunary [PVWVI11O39]7‒ formed, Mes pH 5.5 after 5 days [2, 19]: 1%; % parent anion, Mes pH 5.5 after 1 day [2, 19]: 99%; % parent anion, Mes pH 5.5 after 5 days [2, 19]: 99%; % parent (active) anion, Mes pH 5.5 freshly prepared ([2]; 3 mM POM, 10 mM Mes pH 5.5, 31P NMR signal integration, appr. 3 h after dissolution): 99%; % parent anion, Tris-HCl pH 7.5 after 1 day [2, 20]: 71%; % parent anion, Tris-HCl pH 7.5 after 5 days [2, 20]: 68%
3 | Na3[α‐P^VW^VI 12O40]·nH2O [[PW12]^3‒] | – | – | – | – | – | – | – | – | – | – | – | – | – | – | – | – | – | – | neither an interaction with the membrane nor cargo transport | to [P^VW^VI 11O39]^7‒ | Carrier activity ([1]; EYPC vesicles, pH 5.5 and 7.4, cargos heptaArg, protamine, polyArg ([AlMo6]: heptaArg and protamine only)): ‐ – ‐ ^k) , ^l); % monolacunary [PVWVI11O39]7‒ formed, Mes pH 5.5 after 1 day [2, 19]: 61%; % monolacunary [PVWVI11O39]7‒ formed, Mes pH 5.5 freshly prepared [2, 19]: 61%; % parent anion, Mes pH 5.5 after 1 day [2, 19]: 5%; % parent anion, NaOAc/HOAc pH 4 after 1 day ([2]; 3 mM POM, 10 mM NaOAc/HOAc pH 4, 31P NMR integration): 28%
